Measured values reported in Sander's compilation of Henry's law constants (doi:10.1021/je00026a010).

Assay: Henry solubility constant Hcp at 298.15 K (mol/(m3 Pa))
Settings: reference: Leighton and Calo (1981)

SMILES | Henry solubility constant Hcp
CCCCCl [1-chlorobutane] | 0.00059
c1ccccc1 [benzene] | 0.0018
ClCCCCCl [1,4-dichlorobutane] | 0.02
ClC(Cl)(Cl)Cl [tetrachloromethane] | 0.00036
ClCC(Cl)Cl [1,1,2-trichloroethane] | 0.012
CCCCCCl [1-chloropentane] | 0.00041
CCCCCCCl [1-chlorohexane] | 0.00041
Clc1ccccc1 [chlorobenzene] | 0.003
C=C(Cl)Cl [1,1-dichloroethene] | 0.00026
CCC(C)Cl (stereo not given) [2-chlorobutane] | 0.00041
CC(Cl)(Cl)Cl [1,1,1-trichloroethane] | 0.00049
ClCCCCCCl [1,5-dichloropentane] | 0.018
ClCCl [dichloromethane] | 0.003
ClCCCCl [1,3-dichloropropane] | 0.01
ClCC(Cl)CCl [1,2,3-trichloropropane] | 0.029
ClC(Cl)C(Cl)Cl [1,1,2,2-tetrachloroethane] | 0.027
CC(Cl)CCl (stereo not given) [1,2-dichloropropane] | 0.0034
Cc1ccccc1 [methylbenzene] | 0.0015
ClC(Cl)=C(Cl)Cl [tetrachloroethene] | 0.00061
ClC=C(Cl)Cl [trichloroethene] | 0.001
